# Measurements: patent US11324725B2, “Compositions and methods for the inhibition of pruritus” (The United States of America, as represented by the …, priority 2017, dated 2022)
# “Also recorded” adds a separate entry of the source.
# Target: T1, hNpr2 (Homo sapiens, UniProt P20594)
# T1 sequence (P20594 23-1047): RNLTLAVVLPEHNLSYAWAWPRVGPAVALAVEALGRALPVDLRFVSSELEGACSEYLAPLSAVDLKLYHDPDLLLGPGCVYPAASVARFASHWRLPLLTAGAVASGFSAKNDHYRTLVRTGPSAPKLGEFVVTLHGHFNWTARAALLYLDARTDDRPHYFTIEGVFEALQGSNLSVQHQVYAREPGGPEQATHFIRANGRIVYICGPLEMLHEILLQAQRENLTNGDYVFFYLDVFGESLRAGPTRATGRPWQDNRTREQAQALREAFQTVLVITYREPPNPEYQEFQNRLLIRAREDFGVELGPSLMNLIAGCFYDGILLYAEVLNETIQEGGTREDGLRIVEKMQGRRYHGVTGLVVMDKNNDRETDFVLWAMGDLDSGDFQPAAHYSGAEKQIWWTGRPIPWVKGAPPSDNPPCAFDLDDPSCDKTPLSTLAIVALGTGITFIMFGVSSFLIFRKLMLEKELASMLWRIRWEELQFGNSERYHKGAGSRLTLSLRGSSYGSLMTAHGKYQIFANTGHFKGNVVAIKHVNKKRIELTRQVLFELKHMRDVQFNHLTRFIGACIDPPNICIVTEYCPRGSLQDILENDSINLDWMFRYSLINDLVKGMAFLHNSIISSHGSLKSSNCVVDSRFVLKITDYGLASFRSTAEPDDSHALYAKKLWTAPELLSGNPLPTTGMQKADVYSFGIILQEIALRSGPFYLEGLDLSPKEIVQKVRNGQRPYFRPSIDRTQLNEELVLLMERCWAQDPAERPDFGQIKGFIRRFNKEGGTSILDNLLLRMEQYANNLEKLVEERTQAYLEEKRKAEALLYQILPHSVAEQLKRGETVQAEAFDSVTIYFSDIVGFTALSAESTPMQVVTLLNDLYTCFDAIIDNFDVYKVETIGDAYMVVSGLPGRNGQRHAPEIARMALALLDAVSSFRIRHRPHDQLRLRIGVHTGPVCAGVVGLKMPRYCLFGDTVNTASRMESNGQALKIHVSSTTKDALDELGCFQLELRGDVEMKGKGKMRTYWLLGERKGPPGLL
# Test: Counter-screen, Nppc-stimulated HEK-hNpr2-cGMP-sensor cells
# Type: cell-based
# Details: for IC50 / Imax: 1 nM Nppc-stimulated; for Inhibition of Nppc-induced hNpr2 activity (in words): HEK-hNpr2-cGMP-sensor cells; for Imax: read-out: Imax, HEK-hNpr2-cGMP-sensor cells, −100% = no agonist
# Excerpt: In order to identify small molecular compounds that inhibit the Npr1 receptor a high-throughput assay to probe inhibition of the receptor guanylate cyclase Npr1 was developed. The assay was designed taking advantage of Promega's GloSensor™ technology (Promega, Madison, Wis.). This technology involves the expression of a cyclic guanosine monophosphate (cGMP) biosensor, comprised of a firefly luciferase variant that was coupled to the cGMP binding domain of human phosphodiesterase 5A, and loading of cells with a cell-permeable luciferase substrate to monitor cGMP production by Npr1 in real time in live cells. Briefly, human embryonic kidney 293 cells stably expressing the human Npr1 and the pGloSensor™-40F cGMP vector (“pGloSensor™-40F”) were generated. Stimulating these cells with the Npr1 agonists human NppA or NppB, luciferase-induced light production could be detected in a dose-dependent manner. HEK293 cells stably expressing human Npr2 and pGS-40F and cells only expressing pGS-40F were also generated to conduct secondary counter screens. In these cells, NppC or sodium nitroprusside were used to stimulate Npr2 or soluble guanylate cyclase which is endogenously expressed in HEK293 cells, respectively. The Npr2-NppC counter screen was employed to search for agents that minimally effected this agonist-receptor interaction. The Npr2-NppC system was used because the side effects of most drugs occur on related receptors. Npr1 and Npr2 are the most related receptors in sequence and function and there are no additional active receptor subtypes in this family of receptors. The procedure is described in detail below.
# Counter-screens were performed with HEK293-hNpr2-cGMP-sensor and HEK293-cGMP-sensor cells. These cells were stimulated with 1 nM NppC or 50 μM sodium nitroprusside, respectively, but otherwise the assay was conducted as described for HEK-hNpr1-cGMP-sensor cells. Pre-agonist controls were the same for all three assays, but normalization of post-agonist data differed between assays. For HEK-hNpr1-cGMP-sensor cells, −100% activity in post-agonist data was defined as described for primary screening, while for HEK-hNpr2-cGMP-sensor and HEK-cGMP-sensor cells, the average signal of DMSO-treated wells with 2% GloSensor™ reagent and the respective agonist was defined as 0% and the average signal of wells without agonist as −100% activity and data were normalized accordingly. Compounds directly interacting with the pGloSensor™-40F reporter system in HEK293 cells stimulated with sodium nitroprusside were eliminated as false positives. Effects of compounds on HEK293 cells stimulated with NppC and stably expressing hNpr2 and pGS-40F were tested for receptor selectivity.
smiles,measurement,value
"Cc1nn2c(c1-c1ccccc1OCc1ccccc1)N(C(=O)Cc1ccc3c(c1)OCO3)CCC2 [JS-8, 2-(benzo[d][1,3]dioxol-5-yl)-1-(3-(2-(benzyloxy)phenyl)-2-methyl-6,7-dihydropyrazolo[1,5-a]pyrimidin-4(5H)-yl)ethan-1-one]",IC50,9.1 ± 1.4 µM
same,Inhibition of Nppc-induced hNpr2 activity (in words),inhibited hNpr2 with similar potency to hNpr1; also recorded: antagonizes natriuretic peptide-induced activation
same,Imax,-127 ± 13%
"Cc1noc(C)c1-c1cc(-c2ccccc2Oc2ccccc2)cn2cncc12 [JS-5, 3,5-dimethyl-4-(6-(2-phenoxyphenyl)imidazo[1,5-a]pyridin-8-yl)isoxazole]",IC50,12 ± 1.1 µM
same,Inhibition of Nppc-induced hNpr2 activity (in words),inhibited hNpr2 with similar potency to hNpr1; also recorded: antagonizes natriuretic peptide-induced activation
same,Imax,-97 ± 4%
"Cc1nn2c(c1-c1ccccc1OCc1ccccc1)N(C(=O)Cc1ccccn1)CCC2 [JS-9, 1-(3-(2-(benzyloxy)phenyl)-2-methyl-6,7-dihydropyrazolo[1,5-a]pyrimidin-4(5H)-yl)-2-(pyridin-2-yl)ethan-1-one]",IC50,20 ± 16 µM
same,Imax,-102 ± 16%
"CN(Cc1ccccc1)C(=O)c1cn2ccnc(-c3ccccc3)c2n1 [JS-14, N-benzyl-N-methyl-8-phenylimidazo[1,2-a]pyrazine-2-carboxamide]",IC50,20 ± 1.1 µM
same,Imax,-91 ± 8%
"COc1ccc(C2(C(=O)N3CCC4(CC3)c3nccn3-c3ccccc3CN4C)CC2)cc1 [JS-12, (1-(4-methoxyphenyl)cyclopropyl)(5-methyl-5,6-dihydrospiro[benzo[f]imidazo[1,2-a][1,4]diazepine-4,4′-piperidin]-1′-yl)methanone]",IC50,5.7 ± 1.1 µM
same,Imax,-96 ± 4%
"O=C(NCc1cccnc1)c1cnc2[nH]nc(-c3ccccc3)c2n1 [JS-7, 3-phenyl-N-(pyridin-3-ylmethyl)-1H-pyrazolo[3,4-b]pyrazine-5-carboxamide]",IC50,16 ± 1.3 µM
same,Imax,-122 ± 11%
"Cc1nn2c(c1-c1ccccc1Oc1ccccc1)N(C(=O)Cc1ccc3c(c1)OCO3)CCC2 [JS-10, 2-(benzo[d][1,3]dioxol-5-yl)-1-(2-methyl-3-(2-phenoxyphenyl)-6,7-dihydropyrazolo[1,5-a]pyrimidin-4(5H)-yl)ethan-1-one]",IC50,5.4 ± 1.4 µM
same,Imax,-86 ± 5%
"COc1ccccc1-c1n[nH]c2ncc(C(=O)NCc3cccnc3)nc12 [JS-6, 3-(2-methoxyphenyl)-N-(pyridin-3-ylmethyl)-1H-pyrazolo[3,4-b]pyrazine-5-carboxamide]",IC50,6.9 ± 1.1 µM
same,Imax,-102 ± 3%
"Cl.O=C1Nc2ccccc2CN(CC2CCCCC2)C12CCNCC2 [JS-1, 4-(cyclohexylmethyl)-4,5-dihydrospiro[benzo[e][1,4]diazepine-3,4′-piperidin]-2(1H)-one hydrochloride]",IC50,7.2 ± 1.3 µM
same,Imax,-106 ± 8%
"Cc1cc(CNC(=O)c2ccc3c(c2)n(CC2CC2)c(=O)n3C2CCCCC2)on1 [JS-11, 1-cyclohexyl-3-(cyclopropylmethyl)-N-((3-methylisoxazol-5-yl)methyl)-2-oxo-2,3-dihydro-1H-benzo[d]imidazole-5-carboxamide]",IC50,5 ± 1.1 µM
same,Inhibition of Nppc-induced hNpr2 activity (in words),inhibited hNpr2 with similar potency to hNpr1; also recorded: antagonizes natriuretic peptide-induced activation
same,Imax,-97 ± 4%
"N#Cc1ccccc1CN1CCCC(C(=O)NCc2ccccc2)CCNC(=O)CC1 (stereo not shown) [JS-13, N-benzyl-1-(2-cyanobenzyl)-4-oxo-1,5-diazacycloundecane-8-carboxamide]",IC50,5.9 ± 1.3 µM
same,Imax,-108 ± 8%
"COc1cc(CN2CCC(C)(NC(C)=O)CC2)cc(-c2ccncc2)c1 [JS-4, N-(1-(3-methoxy-5-(pyridin-4-yl)benzyl)-4-methylpiperidin-4-yl)acetamide]",IC50,11 ± 1.2 µM
same,Imax,-100 ± 5%
"CCC(CC)c1cc([C@H]2CN3CC[C@H]2C[C@@H]3CNS(=O)(=O)c2cccs2)nc(-c2ccncc2)n1 [JS-3, N-(((2R,4S,5R)-5-(6-(pentan-3-yl)-2-(pyridin-4-yl)pyrimidin-4-yl)quinuclidin-2-yl)methyl)thiophene-2-sulfonamide]",IC50,17 ± 20 µM
same,Imax,-126 ± 23%
"O=C(Cc1ccc(Cl)cc1)N1Cc2ccccc2CC2(CCCN2CC2CCNC2)C1 (stereo not shown) [JS-2, 2-(4-chlorophenyl)-1-(1′-(pyrrolidin-3-ylmethyl)-1,5-dihydrospiro[benzo[c]azepine-4,2′-pyrrolidin]-2(3H)-yl)ethan-1-one]",IC50,6.4 ± 1.1 µM
same,Imax,-88 ± 5%
